Test system: 356 CRISPRi constructs in E. coli ΔtolC-pore
Assay: CRISPRi collection fitness screen with sub-inhibitory compound
Assay type: cell-based
Conditions: for Growth represented as mean colony biomass: 1μg/ml MAC0452936, 6ng/ml LolCDE-in-1, 250 ng/ml Vancomycin, 7 ng/ml CHIR090, n=4; for Growth, mean colony biomass (n=4): + 7 ng/ml CHIR090
Text: To that end, we screened the E. coli CRISPRi collection in the ΔtolC-pore genetic background with a sub-inhibitory concentration of MAC-0452936 and measured the fitness of all 356 CRISPRi mutants (Figure 4C and Data S4). […] To that end, we introduced either an arabinose inducible copy of lgt supplied on the pCHAP9231 plasmid[48] or the pBAD19s plasmid as a control into E. coli ΔtolC-pore and tested the potency of MAC-0452936 (Figure 4E). […] To test this hypothesis, we constructed E. coli ΔlgtΔtolC-pore with pCHAP9231[48] so that lgt expression was driven solely by arabinose from the plasmid.
For screens of the CRISPRi collection with MAC-0452936, the mobile CRISPRi collection was first conjugated into E. coli ΔtolC-pore as previously described.[30] The CRISPRi collection was then arrayed on solid agar at 1536 density using the Singer-ROTOR, such that each CRISPRi strain is arrayed in technical quadruplicate. […] The screens were conducted without CRISPRi induction, using just the 5–10% basal knockdown from the pFD152 CRISPRi plasmid. Following overnight growth, plates were imaged using high-resolution scanners (Epson Perfection v750), and colony biomass for each mutant was determined.

[1] = sub-inhibitory (¼ MIC) concentration, LB agar, basal knockdown

Compound: C[C@@H](O)[C@H](NC(=O)c1ccc(C#Cc2ccc(CN3CCOCC3)cc2)cc1)C(=O)NO [CHIR090]
- Growth represented as mean colony biomass (gRNA accA): 0.9728
- Growth, mean colony biomass (n=4) (gRNA aceF): 1.1
- Growth, mean colony biomass (n=4) (gRNA alaS): 1.087
- Growth, mean colony biomass (n=4) (gRNA argS): 1.119
- Growth, mean colony biomass (n=4) (gRNA asnS): 1.015
- Growth, mean colony biomass (n=4) (gRNA bamA): 1.043
- Growth, mean colony biomass (n=4) (gRNA bamD): 1.088
- Growth, mean colony biomass (n=4) (gRNA bioA): 1.01
- Growth, mean colony biomass (n=4) (gRNA can): 1.059
- Growth represented as mean colony biomass (gRNA cca): 0.9249
- Growth represented as mean colony biomass (gRNA coaA): 0.8479
- Growth, mean colony biomass (n=4) (gRNA csrA): 1.056
- Growth represented as mean colony biomass (gRNA cydA): 1.062
- Growth represented as mean colony biomass (gRNA cydX): 1.061
- Growth represented as mean colony biomass (gRNA dapD): 0.9522
- Growth represented as mean colony biomass (gRNA dapE): 1.007
- Growth represented as mean colony biomass (gRNA der): 0.9768
- Growth represented as mean colony biomass (gRNA dfp): 0.8989
- Growth, mean colony biomass (n=4) (gRNA dnaC): 1.065
- Growth represented as mean colony biomass (gRNA dnaE): 1.058
- Growth represented as mean colony biomass (gRNA dnaN): 1.037
- Growth represented as mean colony biomass (gRNA dnaX): 0.9219
- Growth, mean colony biomass (n=4) (gRNA dut): 0.9955
- Growth represented as mean colony biomass (gRNA eno): 0.9728
- Growth represented as mean colony biomass (gRNA era): 1.02
- Growth represented as mean colony biomass (gRNA fabA): 0.9775
- Growth represented as mean colony biomass (gRNA fabG): 1.01
- Growth represented as mean colony biomass (gRNA fabI): 0.9675
- Growth represented as mean colony biomass (gRNA fdx): 0.979
- Growth represented as mean colony biomass (gRNA fldA): 1.057
- Growth, mean colony biomass (n=4) (gRNA folA): 0.9636
- Growth represented as mean colony biomass (gRNA folB): 1.017
- Growth, mean colony biomass (n=4) (gRNA folC): 1.012
- Growth represented as mean colony biomass (gRNA folE): 0.9169
- Growth represented as mean colony biomass (gRNA folP): 0.9924
- Growth represented as mean colony biomass (gRNA frr): 0.9411
- Growth, mean colony biomass (n=4) (gRNA ftsA): 0.9154
- Growth represented as mean colony biomass (gRNA gapA): 0.9821
- Growth, mean colony biomass (n=4) (gRNA glmS): 1.055
- Growth represented as mean colony biomass (gRNA glmU): 1.014
- Growth represented as mean colony biomass (gRNA gltX): 0.9512
- Growth, mean colony biomass (n=4) (gRNA glyA): 1.052
- Growth represented as mean colony biomass (gRNA groS): 0.9583
- Growth represented as mean colony biomass (gRNA grpE): 1.032
- Growth represented as mean colony biomass (gRNA guaA): 0.9865
- Growth, mean colony biomass (n=4) (gRNA hemD): 1.036
- Growth represented as mean colony biomass (gRNA hemG): 0.9689
- Growth represented as mean colony biomass (gRNA hemH): 0.992
- Growth represented as mean colony biomass (gRNA hemL): 0.9608
- Growth represented as mean colony biomass (gRNA higA): 1.023
- Growth represented as mean colony biomass (gRNA hisS): 0.9896
- Growth represented as mean colony biomass (gRNA holD): 0.9599
- Growth represented as mean colony biomass (gRNA hscA): 0.9776
- Growth, mean colony biomass (n=4) (gRNA infA): 1.073
- Growth represented as mean colony biomass (gRNA infC): 1.06
- Growth represented as mean colony biomass (gRNA iscU): 0.9911
- Growth represented as mean colony biomass (gRNA ispB): 0.9696
- Growth represented as mean colony biomass (gRNA ispF): 0.9551
- Growth, mean colony biomass (n=4) (gRNA leuS): 1.366
- Growth, mean colony biomass (n=4) (gRNA lexA): 1.376
- Growth represented as mean colony biomass (gRNA lolC): 0.8957
- Growth, mean colony biomass (n=4) (gRNA lptA): 1.212
- Growth, mean colony biomass (n=4) (gRNA lptB): 1.0261
- Growth represented as mean colony biomass (gRNA lptC): 1.089
- Growth represented as mean colony biomass (gRNA lptE): 1.06
- Growth represented as mean colony biomass (gRNA lptF): 1.019
- Growth represented as mean colony biomass (gRNA lptG): 1.007
- Growth represented as mean colony biomass (gRNA lpxC): 0.3105
- Growth represented as mean colony biomass (gRNA lpxD): 1.005
- Growth, mean colony biomass (n=4) (gRNA mnmA): 1.028
- Growth, mean colony biomass (n=4) (gRNA mrdB): 0.9292
- Growth represented as mean colony biomass (gRNA mreB): 0.9175
- Growth represented as mean colony biomass (gRNA mreC): 0.8842
- Growth, mean colony biomass (n=4) (gRNA msbA): 1.129
- Growth, mean colony biomass (n=4) (gRNA mukF): 0.98
- Growth represented as mean colony biomass (gRNA murB): 1.054
- Growth represented as mean colony biomass (gRNA murC): 0.9542
- Growth, mean colony biomass (n=4) (gRNA murI): 1.202
- Growth, mean colony biomass (n=4) (gRNA nadK): 1.005
- Growth represented as mean colony biomass (gRNA nusB): 1.054
- Growth represented as mean colony biomass (gRNA plsB): 0.9093
- Growth, mean colony biomass (n=4) (gRNA prmC): 0.9966
- Growth represented as mean colony biomass (gRNA proS): 0.9867
- Growth, mean colony biomass (n=4) (gRNA psd): 1.319
- Growth, mean colony biomass (n=4) (gRNA pssA): 0.939
- Growth, mean colony biomass (n=4) (gRNA ptsI): 1.093
- Growth represented as mean colony biomass (gRNA racR): 0.9688
- Growth, mean colony biomass (n=4) (gRNA rho): 0.9866
- Growth represented as mean colony biomass (gRNA ribA): 0.9235
- Growth represented as mean colony biomass (gRNA ribC): 0.9738
- Growth, mean colony biomass (n=4) (gRNA ribD): 1.097
- Growth represented as mean colony biomass (gRNA ribF): 0.9595
- Growth represented as mean colony biomass (gRNA rimM): 0.9147
- Growth represented as mean colony biomass (gRNA rluD): 1.0007
- Growth, mean colony biomass (n=4) (gRNA rne): 1.043
- Growth represented as mean colony biomass (gRNA rpe): 1.042
- Growth, mean colony biomass (n=4) (gRNA rplA): 0.9782
- Growth represented as mean colony biomass (gRNA rplD): 0.927
- Growth represented as mean colony biomass (gRNA rplE): 1.02
- Growth represented as mean colony biomass (gRNA rplJ): 0.8734
- Growth represented as mean colony biomass (gRNA rplO): 0.8878
- Growth, mean colony biomass (n=4) (gRNA rplP): 1.09
- Growth represented as mean colony biomass (gRNA rplQ): 1.099
- Growth represented as mean colony biomass (gRNA rplS): 0.9537
- Growth, mean colony biomass (n=4) (gRNA rplV): 1.004
- Growth, mean colony biomass (n=4) (gRNA rplX): 1.052
- Growth represented as mean colony biomass (gRNA rplY): 1.0779
- Growth, mean colony biomass (n=4) (gRNA rpmC): 0.9906
- Growth represented as mean colony biomass (gRNA rpmH): 1.001
- Growth represented as mean colony biomass (gRNA rpmI): 0.9513
- Growth, mean colony biomass (n=4) (gRNA rpoC): 1.121
- Growth, mean colony biomass (n=4) (gRNA rpoE): 1.013
- Growth represented as mean colony biomass (gRNA rpoH): 1.038
- Growth, mean colony biomass (n=4) (gRNA rpsC): 1.084
- Growth, mean colony biomass (n=4) (gRNA rpsD): 1.134
- Growth represented as mean colony biomass (gRNA rpsE): 0.9264
- Growth represented as mean colony biomass (gRNA rpsF): 1.096
- Growth, mean colony biomass (n=4) (gRNA rpsG): 0.9816
- Growth represented as mean colony biomass (gRNA rpsH): 0.9044
- Growth, mean colony biomass (n=4) (gRNA rpsK): 1.022
- Growth, mean colony biomass (n=4) (gRNA rpsL): 1.049
- Growth, mean colony biomass (n=4) (gRNA rpsM): 0.9866
- Growth, mean colony biomass (n=4) (gRNA rpsR): 1.0423
- Growth, mean colony biomass (n=4) (gRNA rpsT): 0.8858
- Growth represented as mean colony biomass (gRNA rsgA): 0.9517
- Growth represented as mean colony biomass (gRNA safA): 1.0001
- Growth, mean colony biomass (n=4) (gRNA secA): 1.136
- Growth represented as mean colony biomass (gRNA secY): 1.007
- Growth represented as mean colony biomass (gRNA serS): 1.071
- Growth represented as mean colony biomass (gRNA ssb): 1.053
- Growth represented as mean colony biomass (gRNA sucA): 0.9406
- Growth, mean colony biomass (n=4) (gRNA suhB): 1.008
- Growth represented as mean colony biomass (gRNA tilS): 1.04
- Growth represented as mean colony biomass (gRNA tonB): 0.9801
- Growth represented as mean colony biomass (gRNA trmD): 0.9934
- Growth represented as mean colony biomass (gRNA tsaB): 1.008
- Growth represented as mean colony biomass (gRNA tsaD): 0.9494
- Growth, mean colony biomass (n=4) (gRNA tsaE): 1.05
- Growth represented as mean colony biomass (gRNA tsf): 1.069
- Growth represented as mean colony biomass (gRNA tusE): 1.0146
- Growth represented as mean colony biomass (gRNA tyrS): 0.993
- Growth represented as mean colony biomass (gRNA ubiB): 0.9982
- Growth represented as mean colony biomass (gRNA ubiD): 0.963
- Growth, mean colony biomass (n=4) (gRNA waaA): 1.006
- Growth represented as mean colony biomass (gRNA ydaS): 0.976
- Growth represented as mean colony biomass (gRNA ydcD): 0.9913
- Growth represented as mean colony biomass (gRNA ydhL): 0.9285
- Growth, mean colony biomass (n=4) (gRNA yedN): 0.9909
- Growth represented as mean colony biomass (gRNA yejM): 0.9171
- Growth represented as mean colony biomass (gRNA yffS): 1.036
- Growth represented as mean colony biomass (gRNA ygeF): 1.069
- Growth, mean colony biomass (n=4) (gRNA ygeN): 0.9546
- Growth represented as mean colony biomass (gRNA yidC): 0.9824
- Growth represented as mean colony biomass (gRNA ymfE): 0.9789
- Growth represented as mean colony biomass (gRNA ymiB): 1.048
- Growth, mean colony biomass (n=4) (gRNA yqeL): 1.42
- Growth represented as mean colony biomass (gRNA yqgF): 1.058
- Growth, mean colony biomass (n=4) (gRNA zipA): 1.877
- growth defect of CRISPRi strains for the compound's molecular target (LolCDE complex and LpxC, respectively) [1]: strongest growth defect
- growth defect of the lgt CRISPRi mutant in the presence of compound [1]: did not demonstrate a growth defect

Source: paper PMC11456916, “A screen for cell envelope stress uncovers an inhibitor of prolipoprotein diacylglyceryl transferase, Lgt, in Escherichiacoli” (iScience, 2024)
